According to ChEMBL document CHEMBL3885881, “DrugMatrix”:

Species on record: Rattus norvegicus
Assay: DrugMatrix - Regimen: Daily Repeat
Type: toxicity, organism-based, Sprague-Dawley
Parameters: regimen Daily Repeat, gender Male, age 6-8 weeks
Conditions: in vivo, po, route oral GAVAGE, vehicle .5 % CMC; for BASOPHIL / EOSINOPHIL / ERYTHROCYTE COUNT / HEMATOCRIT / HEMOGLOBIN / LEUKOCYTE COUNT / LYMPHOCYTE / MEAN CORPUSCULAR HEMOGLOBIN / MEAN CORPUSCULAR HEMOGLOBIN CONCENTRATION / MEAN CORPUSCULAR VOLUME / MONOCYTE / NEUTROPHIL / PLATELET COUNT: tissue Blood; for ALANINE AMINOTRANSFERASE / ALBUMIN / ALKALINE PHOSPHATASE / ASPARTATE AMINOTRANSFERASE / BLOOD UREA NITROGEN / CHLORIDE / CHOLESTEROL / CREATINE PHOSPHOKINASE / CREATININE / GLUCOSE / PHOSPHORUS / SODIUM / TOTAL PROTEIN: tissue Plasma
[1] = 0 mg/kg, 72 h, dose level Control, time 3 day
[2] = 0 mg/kg, 120 h, dose level Control, time 5 day
[3] = 10 mg/kg, 72 h, dose level Low, time 3 day
[4] = 10 mg/kg, 120 h, dose level Low, time 5 day
[5] = 2000 mg/kg, 72 h, dose level High, time 3 day
[6] = 2000 mg/kg, 120 h, dose level High, time 5 day

CCn1cc(C(=O)O)c(=O)c2cc(F)c(N3CCNC(C)C3)c(F)c21 (stereo unspecified) [LOMEFLOXACIN]
BASOPHIL [1]: 0%
EOSINOPHIL [1]: 0.4%
ERYTHROCYTE COUNT [1]: 6.43 x10E6/uL
HEMATOCRIT [1]: 37.36%
HEMOGLOBIN [1]: 13.98 G/DL
LEUKOCYTE COUNT [1]: 13 x10E3/uL
LYMPHOCYTE [1]: 81.4%
MEAN CORPUSCULAR HEMOGLOBIN [1]: 21.9 pg
MEAN CORPUSCULAR HEMOGLOBIN CONCENTRATION [1]: 37.4 G/DL
MEAN CORPUSCULAR VOLUME [1]: 58.52 fL
MONOCYTE [1]: 0.4%
NEUTROPHIL [1]: 18%
PLATELET COUNT [1]: 1386 x10E3/uL
ALANINE AMINOTRANSFERASE [1]: 39.33 u/L
ALBUMIN [1]: 3.57 G/DL
ALKALINE PHOSPHATASE [1]: 283.83 u/L
ASPARTATE AMINOTRANSFERASE [1]: 69.5 u/L
BLOOD UREA NITROGEN [1]: 14.83 mg/dL
CHLORIDE [1]: 107.33 MEQ/L
CHOLESTEROL [1]: 75.17 mg/dL
CREATINE PHOSPHOKINASE [1]: 107.67 u/L
CREATININE [1]: 0.48 mg/dL
GLUCOSE [1]: 172.5 mg/dL
PHOSPHORUS [1]: 10.48 mg/dL
SODIUM [1]: 152.33 MEQ/L
TOTAL PROTEIN [1]: 5.9 G/DL
BASOPHIL [2]: 0%
EOSINOPHIL [2]: 0.4%
ERYTHROCYTE COUNT [2]: 6.96 x10E6/uL
HEMATOCRIT [2]: 41.12%
HEMOGLOBIN [2]: 15.24 G/DL
LEUKOCYTE COUNT [2]: 11.06 x10E3/uL
LYMPHOCYTE [2]: 88.6%
MEAN CORPUSCULAR HEMOGLOBIN [2]: 21.96 pg
MEAN CORPUSCULAR HEMOGLOBIN CONCENTRATION [2]: 37.1 G/DL
MEAN CORPUSCULAR VOLUME [2]: 59.12 fL
MONOCYTE [2]: 0.2%
NEUTROPHIL [2]: 10.8%
PLATELET COUNT [2]: 1155.8 x10E3/uL
ALANINE AMINOTRANSFERASE [2]: 36.33 u/L
ALBUMIN [2]: 3.72 G/DL
ALKALINE PHOSPHATASE [2]: 340.33 u/L
ASPARTATE AMINOTRANSFERASE [2]: 68.33 u/L
BLOOD UREA NITROGEN [2]: 15 mg/dL
CHLORIDE [2]: 108.17 MEQ/L
CHOLESTEROL [2]: 74.67 mg/dL
CREATINE PHOSPHOKINASE [2]: 110.67 u/L
CREATININE [2]: 0.47 mg/dL
GLUCOSE [2]: 171.33 mg/dL
PHOSPHORUS [2]: 10.05 mg/dL
SODIUM [2]: 155.5 MEQ/L
TOTAL PROTEIN [2]: 6.33 G/DL
BASOPHIL [3]: 0%
EOSINOPHIL [3]: 0.33%
ERYTHROCYTE COUNT [3]: 6.14 x10E6/uL
HEMATOCRIT [3]: 37.73%
HEMOGLOBIN [3]: 14.37 G/DL
LEUKOCYTE COUNT [3]: 14.47 x10E3/uL
LYMPHOCYTE [3]: 89.33%
MEAN CORPUSCULAR HEMOGLOBIN [3]: 23.47 pg
MEAN CORPUSCULAR HEMOGLOBIN CONCENTRATION [3]: 38.1 G/DL
MEAN CORPUSCULAR VOLUME [3]: 61.53 fL
MONOCYTE [3]: 0%
NEUTROPHIL [3]: 10.33%
PLATELET COUNT [3]: 1193.33 x10E3/uL
ALANINE AMINOTRANSFERASE [3]: 39 u/L
ALBUMIN [3]: 3.37 G/DL
ALKALINE PHOSPHATASE [3]: 307 u/L
ASPARTATE AMINOTRANSFERASE [3]: 60.67 u/L
BLOOD UREA NITROGEN [3]: 11.33 mg/dL
CHLORIDE [3]: 106.67 MEQ/L
CHOLESTEROL [3]: 65.33 mg/dL
CREATINE PHOSPHOKINASE [3]: 106 u/L
CREATININE [3]: 0.53 mg/dL
GLUCOSE [3]: 175.33 mg/dL
PHOSPHORUS [3]: 12.17 mg/dL
SODIUM [3]: 151.67 MEQ/L
TOTAL PROTEIN [3]: 5.53 G/DL
BASOPHIL [4]: 0%
EOSINOPHIL [4]: 0%
ERYTHROCYTE COUNT [4]: 6.95 x10E6/uL
HEMATOCRIT [4]: 41.1%
HEMOGLOBIN [4]: 15.1 G/DL
LEUKOCYTE COUNT [4]: 16.87 x10E3/uL
LYMPHOCYTE [4]: 90.67%
MEAN CORPUSCULAR HEMOGLOBIN [4]: 21.77 pg
MEAN CORPUSCULAR HEMOGLOBIN CONCENTRATION [4]: 36.73 G/DL
MEAN CORPUSCULAR VOLUME [4]: 59.17 fL
MONOCYTE [4]: 0.33%
NEUTROPHIL [4]: 9%
PLATELET COUNT [4]: 1212.33 x10E3/uL
ALANINE AMINOTRANSFERASE [4]: 46.33 u/L
ALBUMIN [4]: 3.43 G/DL
ALKALINE PHOSPHATASE [4]: 276.33 u/L
ASPARTATE AMINOTRANSFERASE [4]: 68 u/L
BLOOD UREA NITROGEN [4]: 13.67 mg/dL
CHLORIDE [4]: 105 MEQ/L
CHOLESTEROL [4]: 70 mg/dL
CREATINE PHOSPHOKINASE [4]: 104.33 u/L
CREATININE [4]: 0.57 mg/dL
GLUCOSE [4]: 159.33 mg/dL
PHOSPHORUS [4]: 10.67 mg/dL
SODIUM [4]: 151.67 MEQ/L
TOTAL PROTEIN [4]: 5.7 G/DL
BASOPHIL [5]: 0%
EOSINOPHIL [5]: 0%
ERYTHROCYTE COUNT [5]: 6.7 x10E6/uL
HEMATOCRIT [5]: 41%
HEMOGLOBIN [5]: 15.63 G/DL
LEUKOCYTE COUNT [5]: 12.43 x10E3/uL
LYMPHOCYTE [5]: 83%
MEAN CORPUSCULAR HEMOGLOBIN [5]: 23.33 pg
MEAN CORPUSCULAR HEMOGLOBIN CONCENTRATION [5]: 38.17 G/DL
MEAN CORPUSCULAR VOLUME [5]: 61.2 fL
MONOCYTE [5]: 0.33%
NEUTROPHIL [5]: 16.67%
PLATELET COUNT [5]: 1479.67 x10E3/uL
ALANINE AMINOTRANSFERASE [5]: 32 u/L
ALBUMIN [5]: 3.53 G/DL
ALKALINE PHOSPHATASE [5]: 214.33 u/L
ASPARTATE AMINOTRANSFERASE [5]: 57.67 u/L
BLOOD UREA NITROGEN [5]: 19 mg/dL
CHLORIDE [5]: 103.33 MEQ/L
CHOLESTEROL [5]: 62.67 mg/dL
CREATINE PHOSPHOKINASE [5]: 126 u/L
CREATININE [5]: 0.67 mg/dL
GLUCOSE [5]: 129.33 mg/dL
PHOSPHORUS [5]: 11.57 mg/dL
SODIUM [5]: 149.33 MEQ/L
TOTAL PROTEIN [5]: 5.93 G/DL
BASOPHIL [6]: 0%
EOSINOPHIL [6]: 0%
ERYTHROCYTE COUNT [6]: 6.87 x10E6/uL
HEMATOCRIT [6]: 40.23%
HEMOGLOBIN [6]: 15.07 G/DL
LEUKOCYTE COUNT [6]: 19.9 x10E3/uL
LYMPHOCYTE [6]: 96.33%
MEAN CORPUSCULAR HEMOGLOBIN [6]: 21.93 pg
MEAN CORPUSCULAR HEMOGLOBIN CONCENTRATION [6]: 37.47 G/DL
MEAN CORPUSCULAR VOLUME [6]: 58.57 fL
MONOCYTE [6]: 0%
NEUTROPHIL [6]: 3.67%
PLATELET COUNT [6]: 1396 x10E3/uL
ALANINE AMINOTRANSFERASE [6]: 40.67 u/L
ALBUMIN [6]: 3.47 G/DL
ALKALINE PHOSPHATASE [6]: 183 u/L
ASPARTATE AMINOTRANSFERASE [6]: 56.33 u/L
BLOOD UREA NITROGEN [6]: 13.33 mg/dL
CHLORIDE [6]: 106 MEQ/L
CHOLESTEROL [6]: 63 mg/dL
CREATINE PHOSPHOKINASE [6]: 125.67 u/L
CREATININE [6]: 0.5 mg/dL
GLUCOSE [6]: 154.67 mg/dL
PHOSPHORUS [6]: 10.7 mg/dL
SODIUM [6]: 152.33 MEQ/L
TOTAL PROTEIN [6]: 5.8 G/DL
